These results are taken from patent US9095136B2, “2-IODO imidazole-derivatives” (BAYER INTELLECTUAL PROPERTY GMBH, priority 2011, dated 2015).

Data set [1] in a line: log P by HPLC on reversed-phase columns (EEC directive 79/831 Annex V.A8). It counts as physicochemical.
The subject of the next data set is Alternaria solani. The experiment in a line: Example A: Alternaria test (tomato)/protective. The class given is in vivo. The conditions noted are these: protective, 500 ppm, evaluation 7 days after inoculation. The protocol:
Solvent: 49 parts by weight of N,N-dimethylformamide Emulsifier: 1 part by weight of alkylaryl polyglycol ether To produce a suitable preparation of active compound, 1 part by weight of active compound is mixed with the stated amounts of solvent and emulsifier, and the concentrate is diluted with water to the desired concentration. […] The plants then remain at 96% rel. atmospheric humidity and a temperature of 20° C.

The test system of a further data set is Sphaerotheca fuliginea. The experiment in a line: Example B: Sphaerotheca test (cucumber)/protective. It counts as in vivo. As to conditions: protective, 500 ppm, evaluation 7 days after inoculation. The method, then: Solvent: 49 parts by weight of N,N-dimethylformamide Emulsifier: 1 part by weight of alkylaryl polyglycol ether To produce a suitable preparation of active compound, 1 part by weight of active compound is mixed with the stated amounts of solvent and emulsifier, and the concentrate is diluted with water to the desired concentration. To test for protective activity, young cucumber plants are sprayed with the preparation of active compound at the stated application rate. 1 day after the treatment, the plants are inoculated with a spore suspension of Sphaerotheca fuliginea. The plants are then placed in a greenhouse at 70% relative air humidity and a temperature of 23° C.

The subject of the next data set is Phakopsora pachyrhizi. Put plainly: Example F: Phakopsora test (soya beans)/protective. It counts as in vivo. The conditions noted are these: protective, 100 ppm, evaluation 7 days after inoculation. The protocol:
(§1) Solvents: 24.5 parts by weight of acetone • 24.5 parts by weight of dimethylacetamide Emulsifier: 1 part by weight of alkylaryl polyglycol ether To produce a suitable preparation of active compound, 1 part by weight of active compound is mixed with the stated amounts of solvent and emulsifier, and the concentrate is diluted with water to the desired concentration. To test for protective activity, young plants are sprayed with the preparation of active compound at the stated application rate.

For the next data set, the system named is Leptosphaeria nodorum. Put plainly: Example H: Leptosphaeria nodorum test (wheat)/protective. It counts as in vivo. The conditions noted are these: protective, 500 ppm, evaluation 8 days after inoculation. The protocol:
Solvent: 49 parts by weight of N,N-dimethylacetamide Emulsifier: 1 part by weight of alkylaryl polyglycol ether To produce a suitable preparation of active compound, 1 part by weight of active compound is mixed with the stated amounts of solvent and emulsifier, and the concentrate is diluted with water to the desired concentration. To test for protective activity, young plants are sprayed with the preparation of active compound at the stated application rate. After the spray coating has dried on, the plants are sprayed with a spore suspension of Leptosphaeria nodorum.

The test system of the next data set is Septoria tritici. Put plainly: Example I: Septoria tritici test (wheat)/protective. The conditions noted are these: protective, 500 ppm, evaluation 21 days after inoculation. It counts as in vivo. The protocol:
Solvent: 49 parts by weight of N,N-dimethylacetamide Emulsifier: 1 part by weight of alkylaryl polyglycol ether To produce a suitable preparation of active compound, 1 part by weight of active compound is mixed with the stated amounts of solvent and emulsifier, and the concentrate is diluted with water to the desired concentration. To test for protective activity, young plants are sprayed with the preparation of active compound at the stated application rate. After the spray coating has dried on, the plants are sprayed with a spore suspension of Septoria tritici.

Data set [2] concerns Pyrenophora teres. Put plainly: Example K: Pyrenophora teres test (barley)/protective. It counts as in vivo. As to conditions: protective, 500 ppm, evaluation 8 days after inoculation. The protocol:
Solvent: 49 parts by weight of N,N-dimethylacetamide Emulsifier: 1 part by weight of alkylaryl polyglycol ether To produce a suitable preparation of active compound, 1 part by weight of active compound is mixed with the stated amounts of solvent and emulsifier, and the concentrate is diluted with water to the desired concentration. To test for protective activity, young plants are sprayed with the preparation of active compound at the stated application rate. After the spray coating has dried on, the plants are sprayed with a spore suspension of Pyrenophora teres.

The subject of a further data set is Puccinia triticina. Put plainly: Example L: Puccinia triticina test (wheat)/protective. The class given is in vivo. As to conditions: protective, 500 ppm, evaluation 8 days after inoculation. The method, then: Solvent: 49 parts by weight of N,N-dimethylacetamide Emulsifier: 1 part by weight of alkylaryl polyglycol ether To produce a suitable preparation of active compound, 1 part by weight of active compound is mixed with the stated amounts of solvent and emulsifier, and the concentrate is diluted with water to the desired concentration. To test for protective activity, young plants are sprayed with the preparation of active compound at the stated application rate. After the spray coating has dried on, the plants are sprayed with spores with a spore suspension of Puccinia triticina.

Another data set relates to Phytophthora infestans. It counts as in vivo. As to conditions: tomato, preventative, 500 ppm, evaluation 5 days after inoculation.
In data set [3] the test system is Pyrenophora teres. The experiment in a line: Example R: preventative in vivo test with Pyrenophora teres (net blotch on barley). As to conditions: 500 ppm, evaluation 12 days after inoculation. The protocol:
The active compounds tested are prepared by homogenization in a mixture of acetone/Tween/DMSO and then diluted with water to the desired active compound concentration. Barley plants (cultivar “Plaisant”), sown in a 50/50 peat/pozzolana soil substrate and cultivated at 22° C. (12 h)/20° C. (12 h), are treated at the 1-leaf stage (height 10 cm) by spraying with the active compound, prepared as above. As a control, plants are treated with the mixture of acetone/Tween/DMSO/water without the active compound. After 24 hours, the plants are inoculated by spraying the leaves with an aqueous suspension of Pyrenophora teres spores.

The test system of data set [4] is Uromyces appendiculatus. The experiment in a line: Example W: preventative in vivo test with Uromyces appendiculatus (bean rust). The conditions noted are these: 500 ppm, evaluation 10 days after inoculation.
In data set [5] the test system is Uromyces appendiculatus. Put plainly: Example Y: Uromyces test (beans)/protective, comparison. The conditions noted are these: protective, application rate 10 ppm, evaluation 10 days after inoculation. The class given is in vivo. The protocol:
as §1, with “rate. […] The plants are then placed in a greenhouse at about 21° C. and a relative atmospheric humidity of about 90%.” for “rate.”

For `OC(Cc1ccccc1Cl)(Cn1ccnc1I)C1(Cl)CC1` (stereo not shown) [Example 1, 2-(1-chlorocyclopropyl)-1-(2-chlorophenyl)-3-(2-iodo-1H-imidazol-1-yl)propan-2-ol], the chromatographic logP was 2.35 in [1] (pH 2.7, logP) and 3.38 in data set [1] (pH 7.8, logP). Further, the Eff. % in the data set with Alternaria solani was 88%; with Sphaerotheca fuliginea, 80%; with Phakopsora pachyrhizi, 98%; with Leptosphaeria nodorum it was 100%; in the data set with Septoria tritici, 100%; in the data set on Pyrenophora teres [2] it was 100%. In the data set on Puccinia triticina, the Eff. % is given as 100%. Moreover, the Efficacy % in the data set on Phytophthora infestans, in the data set on Pyrenophora teres [3] and in the data set on Uromyces appendiculatus [4] was 100% throughout. Also, in the data set on Uromyces appendiculatus [5], the Efficacy in % is reported as 100%.
